# Literature values in paper PMC9406037, “Design, Synthesis and Activity of New N^1-Alkyl Tryptophan Functionalized Dendrimeric Peptides against Glioblastoma” (Biomolecules, 2022).
# What was measured:
# [1] = alpha-tocopherol at ca 4.4 µM
# Text: Taking into account structural differences between these two groups of dendrimers, the possible primary mechanism in the DPPH conditions involves hydrogen and electron transfer from the above electron-rich center and to less extent from numerous indole rings. For the same reasons, the highest reductive capabilities (FRAP) were expressed by compound 24. All compounds were very effective in s ...
# [2] = tested on: U87MG cells cultured in spheroids; details: 20 µM alone or in combination with iododeoxyuridine (IUdR 1 µM) for 67 h; clonogenicity observed 10 day later
# Text: Another important issue which has to be taken into consideration is the time of treatment with potential drugs and mode of action. […] […] However, combined treatment o ...
Compound,"radical scavenging potency relative to Trolox, ABTS model [1]","radical scavenging potency relative to Trolox, DPPH model [1]",effect on cell viability or clonogenicity [2]
Cc1c(C)c2c(c(C)c1O)CC[C@@](C)(CCC[C@H](C)CCC[C@H](C)CCCC(C)C)O2 [alpha-tocopherol],~5.5,slightly lower,–
"trans-3,4,5′-trihydroxystilbene [Resveratrol]",much more potent than Trolox,much more potent than Trolox,without any effect on cell viability or clonogenicity
